MIC data for 2 compounds are collected here from patent publication EP4745118A1, “HYDROXAMIC ACID COMPOUND OR PHARMACEUTICALLY ACCEPTABLE SALT THEREOF, AND USE THEREOF AND PREPARATION METHOD THEREFOR” (priority 2023, dated 2025).

In brackets after ≈: the same amount, converted by molar mass.

One test deals with Citrobacter freundii. Description: In vitro antibacterial activity, agar dilution method (MIC). Type of test: cell-based. As to conditions: ATCC43864; Citrobacter freundii ATCC 43864; agar dilution, 35°C, 18 hours; read-out: MIC. As for the experimental part: (§1) According to the relevant operating procedures of the Clinical Laboratory Standards Institute (CLSI) in the United States, an antimicrobial susceptibility testing was conducted using the agar dilution method. […]. The agar was allowed to solidify and set aside for later use.
(§2) The test bacteria were propagated in broth and adjusted to a turbidity of 0.5 McFarland (approximately 1-2 × 10^8 CFU/mL) using a turbidimeter before inoculation. The 0.5 McFarland bacterial solution was then diluted 10-fold in broth (approximately 1-2 × 10^7 CFU/mL). A multipoint inoculator was used to inoculate the above bacterial solution onto a series of plates containing different concentrations of drugs (with an inoculation amount of approximately 10^4 CFU per inoculation site). After incubation at a constant temperature of 35°C for 18 hours, results were observed. The minimum concentration of drugs contained in sterile growth plates was determined as the Minimal Inhibitory Concentration (MIC).
Background: In agar dilution, organisms are placed on agar that contains the substance at set levels.
With `C[C@H]1COc2c(N3CCN(C)CC3)c(F)cc3c(=O)c(C(=O)O)cn1c23` [Levofloxacin], the MIC is no more than 0.03 µg/mL.

As to `C[C@@H](O)[C@H]1C(=O)N2C(C(=O)O)=C(S[C@@H]3CN[C@H](C(=O)N(C)C)C3)[C@H](C)[C@H]12` [Meropenem], the minimum inhibitory concentration (MIC) was no more than 0.03 µg/mL.

The test system of another test is Enterobacter aerogenes. The description is as above. As to conditions: Klebsiella aerogenes, ATCC13048; Enterobacter aerogenes ATCC 13048; agar dilution, 35°C, 18 hours; read-out: MIC. Type of test: cell-based. As to the method:
as §1, §2
For the compound `C[C@H]1COc2c(N3CCN(C)CC3)c(F)cc3c(=O)c(C(=O)O)cn1c23` [Levofloxacin], the MIC is 0.06 µg/mL (≈ 0.166 µM).

Regarding `C[C@@H](O)[C@H]1C(=O)N2C(C(=O)O)=C(S[C@@H]3CN[C@H](C(=O)N(C)C)C3)[C@H](C)[C@H]12` [Meropenem], the minimal inhibitory concentration (MIC) stood at 0.06 µg/mL (≈ 0.156 µM).

In a further test the test system is Escherichia coli. Described as above. The class given is cell-based. As to conditions: Escherichia coli, 18 h, Escherichia coli 13-43 (mcr-1); agar dilution, 35°C, 18 hours; read-out: MIC. As for the experimental part:
as §1, §2
In the case of `C[C@H]1COc2c(N3CCN(C)CC3)c(F)cc3c(=O)c(C(=O)O)cn1c23` [Levofloxacin], the MIC amounted to 64 µg/mL (≈ 177 µM).

With `C[C@@H](O)[C@H]1C(=O)N2C(C(=O)O)=C(S[C@@H]3CN[C@H](C(=O)N(C)C)C3)[C@H](C)[C@H]12` [Meropenem], the MIC is no more than 0.03 µg/mL.

The same test, now with this note: Escherichia coli, 18 h, Escherichia coli 17-R28 (CRE, NDM-1-producing); agar dilution, 35°C.
For the compound `C[C@@H](O)[C@H]1C(=O)N2C(C(=O)O)=C(S[C@@H]3CN[C@H](C(=O)N(C)C)C3)[C@H](C)[C@H]12` [Meropenem], the MIC was determined as 128 µg/mL (≈ 334 µM).

The same test, now with this note: Escherichia coli, 18 h, Escherichia coli 17-R28 (CRE, NDM-1-producing); agar dilution, 35°C, 18 hours; read-out: MIC.
On to `C[C@H]1COc2c(N3CCN(C)CC3)c(F)cc3c(=O)c(C(=O)O)cn1c23` [Levofloxacin], for which the MIC worked out at 8 µg/mL (≈ 22.1 µM).

Still in this test, the particulars now being: Escherichia coli, ATCC2469, 18 h, Escherichia coli ATCC 2469 (CRE, NDM-1-producing); agar dilution, 35°C, 18 hours; read-out: MIC.
As for `C[C@H]1COc2c(N3CCN(C)CC3)c(F)cc3c(=O)c(C(=O)O)cn1c23` [Levofloxacin], the minimal inhibitory concentration (MIC) stood at 16 µg/mL (≈ 44.3 µM).

Consider `C[C@@H](O)[C@H]1C(=O)N2C(C(=O)O)=C(S[C@@H]3CN[C@H](C(=O)N(C)C)C3)[C@H](C)[C@H]12` [Meropenem], for which the MIC was 8 µg/mL (≈ 20.9 µM).

Staying with this test, now noted: Escherichia coli, ATCC35218, 18 h, Escherichia coli ATCC 35218 (ESBLs-producing); agar dilution, 35°C, 18 hours; read-out: MIC.
With `C[C@H]1COc2c(N3CCN(C)CC3)c(F)cc3c(=O)c(C(=O)O)cn1c23` [Levofloxacin], the minimal inhibitory concentration (MIC) is no more than 0.03 µg/mL.

As to `C[C@@H](O)[C@H]1C(=O)N2C(C(=O)O)=C(S[C@@H]3CN[C@H](C(=O)N(C)C)C3)[C@H](C)[C@H]12` [Meropenem], the minimal inhibitory concentration (MIC) is no more than 0.03 µg/mL.

The test system of the next test is Klebsiella pneumoniae. The description is as above. Type of test: cell-based. The note with it: Klebsiella pneumoniae, 18 h, Klebsiella pneumoniae 09-20 (mcr-1); agar dilution, 35°C, 18 hours; read-out: MIC. As for the experimental part: as §1, §2
`C[C@H]1COc2c(N3CCN(C)CC3)c(F)cc3c(=O)c(C(=O)O)cn1c23` [Levofloxacin]: the minimum inhibitory concentration (MIC) was 16 µg/mL (≈ 44.3 µM).

In the case of `C[C@@H](O)[C@H]1C(=O)N2C(C(=O)O)=C(S[C@@H]3CN[C@H](C(=O)N(C)C)C3)[C@H](C)[C@H]12` [Meropenem], the minimum inhibitory concentration (MIC) is no more than 0.03 µg/mL.

Staying with this test, now noted: Klebsiella pneumoniae, 18 h, Klebsiella pneumoniae 17-R27 (CRE); agar dilution, 35°C, 18 hours; read-out: MIC.
In the case of `C[C@H]1COc2c(N3CCN(C)CC3)c(F)cc3c(=O)c(C(=O)O)cn1c23` [Levofloxacin], the minimal inhibitory concentration (MIC) is 16 µg/mL (≈ 44.3 µM).

With `C[C@@H](O)[C@H]1C(=O)N2C(C(=O)O)=C(S[C@@H]3CN[C@H](C(=O)N(C)C)C3)[C@H](C)[C@H]12` [Meropenem], the MIC came to 0.25 µg/mL (≈ 0.652 µM).

The same test, now with this note: Klebsiella pneumoniae, 18 h, Klebsiella pneumoniae 18-8 (ESBLs-producing); agar dilution, 35°C, 18 hours; read-out: MIC.
`C[C@H]1COc2c(N3CCN(C)CC3)c(F)cc3c(=O)c(C(=O)O)cn1c23` [Levofloxacin]: the minimal inhibitory concentration (MIC) was found to be 1 µg/mL (≈ 2.77 µM).

Turning to `C[C@@H](O)[C@H]1C(=O)N2C(C(=O)O)=C(S[C@@H]3CN[C@H](C(=O)N(C)C)C3)[C@H](C)[C@H]12` [Meropenem], the minimum inhibitory concentration (MIC) was no more than 0.03 µg/mL.

The test is the same for the next values; noted with them: Klebsiella pneumoniae, ATCC700603, 18 h, Klebsiella pneumoniae ATCC 700603 (ESBLs-producing); agar dilution, 35°C, 18 hours; read-out: MIC.
`C[C@H]1COc2c(N3CCN(C)CC3)c(F)cc3c(=O)c(C(=O)O)cn1c23` [Levofloxacin]: the MIC came out at 1 µg/mL (≈ 2.77 µM).

For `C[C@@H](O)[C@H]1C(=O)N2C(C(=O)O)=C(S[C@@H]3CN[C@H](C(=O)N(C)C)C3)[C@H](C)[C@H]12` [Meropenem], the minimum inhibitory concentration (MIC) is no more than 0.03 µg/mL.

Still in this test, the particulars now being: Klebsiella pneumoniae, ATCCBAA2146, 18 h, Klebsiella pneumoniae ATCC BAA-2146 (CRE, NDM-1-producing); agar dilution, 35°C, 18 hours.
`C[C@H]1COc2c(N3CCN(C)CC3)c(F)cc3c(=O)c(C(=O)O)cn1c23` [Levofloxacin]: the MIC was greater than 128 µg/mL.

The same test, now with this note: Klebsiella pneumoniae, ATCCBAA2146, 18 h, Klebsiella pneumoniae ATCC BAA-2146 (CRE, NDM-1-producing); agar dilution, 35°C, 18 hours; read-out: MIC.
Consider `C[C@@H](O)[C@H]1C(=O)N2C(C(=O)O)=C(S[C@@H]3CN[C@H](C(=O)N(C)C)C3)[C@H](C)[C@H]12` [Meropenem], for which the minimum inhibitory concentration (MIC) turned out to be 32 µg/mL (≈ 83.4 µM).

Another test has as its system Pantoea agglomerans. The description is as above. The class given is cell-based. As to conditions: ATCC27993; Pantoea agglomerans ATCC 27993; agar dilution, 35°C, 18 hours; read-out: MIC. As for the experimental part:
as §1, §2
Consider `C[C@H]1COc2c(N3CCN(C)CC3)c(F)cc3c(=O)c(C(=O)O)cn1c23` [Levofloxacin], for which the MIC was 0.06 µg/mL (≈ 0.166 µM).

On to `C[C@@H](O)[C@H]1C(=O)N2C(C(=O)O)=C(S[C@@H]3CN[C@H](C(=O)N(C)C)C3)[C@H](C)[C@H]12` [Meropenem], for which the minimal inhibitory concentration (MIC) is no more than 0.03 µg/mL.

The next test relates to Proteus mirabilis. The description is as above. The class given is cell-based. As to conditions: ATCC49565; Proteus mirabilis ATCC 49565; agar dilution, 35°C, 18 hours; read-out: MIC. As to the method:
as §1, §2
`C[C@H]1COc2c(N3CCN(C)CC3)c(F)cc3c(=O)c(C(=O)O)cn1c23` [Levofloxacin]: the MIC stood at 0.12 µg/mL (≈ 0.332 µM).

Turning to `C[C@@H](O)[C@H]1C(=O)N2C(C(=O)O)=C(S[C@@H]3CN[C@H](C(=O)N(C)C)C3)[C@H](C)[C@H]12` [Meropenem], the minimal inhibitory concentration (MIC) amounted to 0.06 µg/mL (≈ 0.156 µM).

In a further test the test system is Proteus vulgaris. Described as above. The note with it: ATCC29905; Proteus vulgaris ATCC 29905; agar dilution, 35°C, 18 hours; read-out: MIC. The class given is cell-based. As for the experimental part:
as §1, §2
Turning to `C[C@H]1COc2c(N3CCN(C)CC3)c(F)cc3c(=O)c(C(=O)O)cn1c23` [Levofloxacin], the MIC was no more than 0.03 µg/mL.

In the case of `C[C@@H](O)[C@H]1C(=O)N2C(C(=O)O)=C(S[C@@H]3CN[C@H](C(=O)N(C)C)C3)[C@H](C)[C@H]12` [Meropenem], the MIC was no more than 0.03 µg/mL.

In the next test the test system is Pseudomonas aeruginosa. The test is described as above. The class given is cell-based. As to conditions: Pseudomonas aeruginosa PAO1; agar dilution, 35°C, 18 hours; read-out: MIC. As to the method: as §1, §2
As for `C[C@H]1COc2c(N3CCN(C)CC3)c(F)cc3c(=O)c(C(=O)O)cn1c23` [Levofloxacin], the minimum inhibitory concentration (MIC) stood at 0.5 µg/mL (≈ 1.38 µM).

As to `C[C@@H](O)[C@H]1C(=O)N2C(C(=O)O)=C(S[C@@H]3CN[C@H](C(=O)N(C)C)C3)[C@H](C)[C@H]12` [Meropenem], the MIC came to 2 µg/mL (≈ 5.22 µM).

In another test the test system is Serratia marcescens. The description is as above. Type of test: cell-based. The note with it: ATCC21074; Serratia marcescens ATCC 21074; agar dilution, 35°C, 18 hours; read-out: MIC. As for the experimental part:
as §1, §2
As for `C[C@H]1COc2c(N3CCN(C)CC3)c(F)cc3c(=O)c(C(=O)O)cn1c23` [Levofloxacin], the minimum inhibitory concentration (MIC) came out at 0.25 µg/mL (≈ 0.692 µM).

Take `C[C@@H](O)[C@H]1C(=O)N2C(C(=O)O)=C(S[C@@H]3CN[C@H](C(=O)N(C)C)C3)[C@H](C)[C@H]12` [Meropenem]: the minimal inhibitory concentration (MIC) amounted to 0.06 µg/mL (≈ 0.156 µM).

A further test has as its system Enterobacter cloacae. The description is as above. Type of test: cell-based. The note with it: Enterobacter cloacae CDC1000654 (NDM-1-producing); agar dilution, 35°C, 18 hours; read-out: MIC. As to the method:
According to the relevant operating procedures of the Clinical Laboratory Standards Institute (CLSI) in the United States, an antimicrobial susceptibility testing was conducted using the agar dilution method. […] The agar was allowed to solidify and set aside for later use.
as §2
`C[C@H]1COc2c(N3CCN(C)CC3)c(F)cc3c(=O)c(C(=O)O)cn1c23` [Levofloxacin]: the minimum inhibitory concentration (MIC) turned out to be 64 µg/mL (≈ 177 µM).

As to `C[C@@H](O)[C@H]1C(=O)N2C(C(=O)O)=C(S[C@@H]3CN[C@H](C(=O)N(C)C)C3)[C@H](C)[C@H]12` [Meropenem], the MIC was 4 µg/mL (≈ 10.4 µM).

The test system of another test is Shigella flexneri. Described as above. The class given is cell-based. The note with it: ATCC12022, Shigella flexneri ATCC 12022, 35°C, 18 hours, read-out: MIC. As for the experimental part:
According to the relevant operating procedures of the Clinical Laboratory Standards Institute (CLSI) in the United States, an antimicrobial susceptibility testing was conducted using the agar dilution method. A 1920 µg/mL stock solution was serially diluted twofold with sterile water to obtain dilutions of 960, 480, 240, 120, 60, 30, 15, 7.5, 3.75, 1.88, 0.94, 0.47 µg/mL, and 1 mL of the dilution was taken respectively from the dilutions with different concentrations and added to a Petri dish, to which 14 mL of melted MH agar medium was added and mixed thoroughly, and the final concentration of the drug in the petri dish is 128, 64, 32, 16, 8, 4, 2, 1, 0.5, 0.25, 0.12, 0.06, and 0.03 µ g/mL, respectively. The agar was allowed to solidify and set aside for later use.
as §2
In the case of `C[C@H]1COc2c(N3CCN(C)CC3)c(F)cc3c(=O)c(C(=O)O)cn1c23` [Levofloxacin], the minimum inhibitory concentration (MIC) was no more than 0.03 µg/mL.

In the case of `C[C@@H](O)[C@H]1C(=O)N2C(C(=O)O)=C(S[C@@H]3CN[C@H](C(=O)N(C)C)C3)[C@H](C)[C@H]12` [Meropenem], the MIC was no more than 0.03 µg/mL.

A word on the MIC: it is the lowest concentration found to suppress growth.
